Reference: patent US9085576B2 (AMGEN INC., priority 2013, dated 2015)
pIC50: −log10 of the molar value. Structures can show the parent of a compound that is named as a salt.

Tests used:
Abeta 40 = assay: In vivo inhibition of beta-secretase: Abeta 40 reduction in CSF and brain of the rat; details: 10 mpk, after 4 hrs; for % reduction of rat CSF levels at 10 pmk: Abeta 40 in rat CSF; for % reduction of rat brain levels at 10 mpk: Abeta 40 in rat brain
Cathepsin D (Cat D) = Cathepsin D (Cat D) (Homo sapiens (Human), UniProt P07339); assay: In vitro enzymatic Cathepsin D (Cat D) FRET assay; type: biochemical; details: read-out: CatD IC50
BACE = BACE (Homo sapiens (Human), UniProt P56817); assay: In vitro BACE cell-based assay (Aβ40 in conditioned medium, sandwich ELISA)
[1] = target: Beta Secretase enzyme (BACE) (Homo sapiens (Human), UniProt P56817); assay: In vitro enzymatic BACE FRET assay; type: biochemical; details: read-out: BACE1 Enzyme assay IC50
Beta Secretase enzyme (BACE), sequence (P56817 46-501): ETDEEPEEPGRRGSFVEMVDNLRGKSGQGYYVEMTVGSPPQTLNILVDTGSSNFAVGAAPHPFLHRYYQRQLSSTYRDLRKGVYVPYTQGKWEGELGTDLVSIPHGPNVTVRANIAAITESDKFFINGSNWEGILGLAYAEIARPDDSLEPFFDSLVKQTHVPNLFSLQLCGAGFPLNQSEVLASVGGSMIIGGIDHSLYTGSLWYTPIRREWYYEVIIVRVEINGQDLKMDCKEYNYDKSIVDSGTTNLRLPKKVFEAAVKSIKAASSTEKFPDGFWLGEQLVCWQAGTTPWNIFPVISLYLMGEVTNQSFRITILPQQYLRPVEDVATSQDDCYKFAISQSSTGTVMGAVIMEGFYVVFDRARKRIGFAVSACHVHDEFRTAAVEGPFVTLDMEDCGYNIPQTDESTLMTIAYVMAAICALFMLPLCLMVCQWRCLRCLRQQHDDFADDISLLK

Cathepsin D (Cat D), sequence (P07339 65-412, species assumed): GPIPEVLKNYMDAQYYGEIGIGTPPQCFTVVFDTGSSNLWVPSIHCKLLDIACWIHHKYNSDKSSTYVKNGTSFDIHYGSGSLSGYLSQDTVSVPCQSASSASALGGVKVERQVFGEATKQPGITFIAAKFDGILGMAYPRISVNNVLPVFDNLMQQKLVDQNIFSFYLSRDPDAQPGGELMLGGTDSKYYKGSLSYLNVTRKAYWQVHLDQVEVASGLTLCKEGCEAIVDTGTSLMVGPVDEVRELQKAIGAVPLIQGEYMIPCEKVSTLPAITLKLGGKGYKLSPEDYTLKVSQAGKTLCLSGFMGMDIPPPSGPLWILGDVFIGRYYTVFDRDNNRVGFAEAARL
BACE, sequence (P56817 46-501, species assumed): as the sequence (P56817 46-501) above

Compound	pIC50 (Cathepsin D (Cat D))	IC50 (BACE) [µM]	pIC50 [1]	% reduction of rat CSF levels at 10 pmk (Abeta 40) [%]	% reduction of rat brain levels at 10 mpk (Abeta 40) [%]	pIC50 (BACE)
C#CCOc1cnc(C(=O)Nc2ccc(F)c([C@@]3(C(F)F)N=C(N)O[C@@H]4C[C@@H]43)c2)cn1 [Example 95, N-(3-(((1R,5S,6R)-3-amino-5-(difluoromethyl)-2-oxa-4-azabicyclo[4.1.0]hept-3-en-5-yl)-4-fluorophenyl)-5-(prop-2-yn-1-yloxy)pyrazine-2-carboxamide trifluoroacetate]	3.84	0.008	8.46	82	77	–
N#Cc1ccc(C(=O)Nc2ccc(F)c([C@@]3(CF)N=C(N)O[C@@H]4C[C@@H]43)c2)nc1 [Example 192, N-(3-((1R,5S,6R)-3-amino-5-(fluoromethyl)-2-oxa-4-azabicyclo[4.1.0]hept-3-en-5-yl)-4-fluorophenyl)-5-cyanopicolinamide]	3.23	0.0079	7.59	81	71	–
NC1=N[C@@](c2cc(NC(=O)c3ncc(Cl)cc3CO)ccc2F)(C(F)F)[C@H]2C[C@H]2O1 [Example 419, N-(3-((1R,5S,6R)-3-amino-5-(difluoromethyl)-2-oxa-4-azabicyclo-[4.1.0]hept-3-en-5-yl)-4-fluorophenyl)-5-chloro-3-(hydroxymethyl)picolinamide]	3.56	–	7.48	57	42	7.53
NC1=N[C@](CF)(c2cc(NC(=O)c3ccc(Cl)cn3)ccc2F)[C@H]2C[C@H]2O1 [Example 117, N-(3-((1R,5S,6R)-3-amino-5-(fluoromethyl)-2-oxa-4-azabicyclo[4.1.0]hept-3-en-5-yl)-4-fluorophenyl)-5-chloropicolinamide]	3.33	0.0053	7.68	78	71	–
NC1=N[C@@](c2cc(NC(=O)c3cnc(OCc4cocn4)cn3)ccc2F)(C(F)F)[C@H]2C[C@H]2O1 [Example 174, N-(3-((1R,5S,6R)-3-amino-5-(difluoromethyl)-2-oxa-4-azabicyclo[4.1.0]hept-3-en-5-yl)-4-fluorophenyl)-5-(oxazol-4-ylmethoxy)pyrazine-2-carboxamide]	3.03	0.0186	7.63	46	26	–

Second part, led by results:

pIC50 (Cathepsin D (Cat D))	IC50 (BACE) [µM]	pIC50 [1]	Compound	% reduction of rat CSF levels at 10 pmk (Abeta 40) [%]	% reduction of rat brain levels at 10 mpk (Abeta 40) [%]	pIC50 (BACE)
3.01	0.0586	7.07	COc1ccc(C(=O)Nc2ccc(F)c([C@@]3(C(F)F)N=C(N)O[C@@H]4C[C@@H]43)c2)nc1 [Example 130, N-(3-((1R,5S,6R)-3-amino-5-(difluoromethyl)-2-oxa-4-azabicyclo[4.1.0]hept-3-en-5-yl)-4-fluorophenyl)-5-methoxypicolinamide]	49	23	–
3.33	0.0033	9.00	CC#CCOc1cnc(C(=O)Nc2ccc(F)c([C@@]3(C(F)F)N=C(N)O[C@@H]4C[C@@H]43)c2)cn1 [Example 96, N-(3-((1R,5S,6R)-3-amino-5-(difluoromethyl)-2-oxa-4-azabicyclo[4.1.0]hept-3-en-5-yl)-4-fluorophenyl)-5-(but-2-yn-1-yloxy)pyrazine-2-carboxamide trifluoroacetate]	24	1	–
3.33	0.014	7.52	COc1cnc(C(=O)Nc2cc(C)c(F)c([C@@]3(C(F)F)N=C(N)O[C@@H]4C[C@@H]43)c2)cn1 [Example 299, N-(3-((1R,5S,6R)-3-amino-5-(difluoromethyl)-2-oxa-4-azabicyclo[4.1.0]hept-3-en-5-yl)-4-fluoro-5-methylphenyl)-5-methoxypyrazine-2-carboxamide]	74	62	–
